In brackets after ≈: the same amount, converted by molar mass.
The compounds below were run on Candida (assay: Antimycotic in vivo activity (oral) in mouse candidiasis). Conditions: in words, 25-100 mg/kg.
Design: species or system Mice of the SPF-CF1 type
Description: Mice of the SPF-CF1 type are intravenously inoculated with 1-2×10^6 logarithmically growing Candida cells, which have been suspended in physical logical saline solution. One hour before and seven hours after infection, the animals are orally treated with 25-100 mg/kg of body weight of the preparation in each case. Result Untreated animals died 3 to 6 days post infection. The survival rate on the 6th day post infection was about 5% in untreated control animals.
In the case of `CC(C)(C#N)C(O)(COc1ccc(Cl)cc1)Cn1cncn1` (stereo not drawn) [Compound 8], the “action in mouse candidiasis compared with compounds (A) and (B)” value was “better action than the compounds (A) and (B)”.

The compounds below were run on Dermatophytes, Hyphomycetes and yeasts (assay: Antimycotic in vitro activity, serial dilution test (overall statement)). Conditions: in words.
Assay type: cell-based
Description: (§1) The in vitro tests were carried out in a serial dilution test using bacterial inocula of, on average, 5×10^3 to 10^4 bacteria/ml of substrate. Nutrients used were (a) for Dermatophytes and Hyphomycetes: Sabouraud's test medium (b) for yeasts: meat extract/dextrose broth. The incubation temperature was 28° C. to 37° C., and the incubation period was 24 to 96 hours for yeasts and 96 hours for Dermatophytes and Hyphomycetes.
In the case of `CC(C)(C#N)C(O)(CSc1ccc(Cl)cc1)Cn1cncn1` (stereo not drawn) [Compound 5], the “antimycotic activity in vitro” value was “good antimycotic activity”. For `CC(C)(C#N)C(O)(CSc1ccc(Br)cc1)Cn1cncn1` (stereo not drawn) [Compound 4], the “antimycotic activity in vitro” value was “good antimycotic activity”. With `CC(C)(C#N)C(O)(COc1ccc(-c2ccccc2)cc1)Cn1cncn1` (stereo not drawn) [Compound 7] the “antimycotic activity in vitro” value was “good antimycotic activity”. In the case of `CC(C)(C#N)C(O)(CCc1ccc(Cl)cc1)Cn1cncn1` (stereo not drawn) [Compound 2], the “antimycotic activity in vitro” value was “good antimycotic activity”.

The compounds below were run on Microsporum canis (assay: Antimycotic in vitro activity, serial dilution test (MIC)). Conditions: Sabouraud's test medium, 28-37° C., 96 hours, read-out: MIC values in μg/ml of nutrient medium.
Assay type: cell-based
Description: as §1
In the case of `CC(C)(C#N)C(O)(CSc1ccc(Br)cc1)Cn1cncn1` (stereo not drawn) [Compound 4], the MIC was 16 µg/mL (≈ 42 µM). In the case of `CC(C)(C#N)C(O)(COc1ccc(-c2ccccc2)cc1)Cn1cncn1` (stereo not drawn) [Compound 7], the MIC was under 1 µg/mL. `CC(C)(C#N)C(O)(CCc1ccc(Cl)cc1)Cn1cncn1` (stereo not drawn) [Compound 2] gave an MIC of 16 µg/mL (≈ 50.2 µM).

What follows are compounds tested on Torulopsis glabrata in the same assay as above. Conditions: Nakaseomyces glabratus, meat extract/dextrose broth, 28-37° C., 24 to 96 hours, read-out: MIC values in μg/ml of nutrient medium.
Assay type: cell-based
Description: as §1
`CC(C)(C#N)C(O)(CSc1ccc(Cl)cc1)Cn1cncn1` (stereo not drawn) [Compound 5] gave an MIC of 4 µg/mL (≈ 11.9 µM). In the case of `CC(C)(C#N)C(O)(CSc1ccc(Br)cc1)Cn1cncn1` (stereo not drawn) [Compound 4], the MIC was 8 µg/mL (≈ 21 µM). `CC(C)(C#N)C(O)(COc1ccc(-c2ccccc2)cc1)Cn1cncn1` (stereo not drawn) [Compound 7] gave an MIC of 16 µg/mL (≈ 44.1 µM). Compound `CC(C)(C#N)C(O)(CCc1ccc(Cl)cc1)Cn1cncn1` (stereo not drawn) [Compound 2] has an MIC of 16 µg/mL (≈ 50.2 µM).

The compounds below were run on Candida albicans in the same assay as above. Conditions: meat extract/dextrose broth, 28-37° C., 24 to 96 hours, read-out: MIC values in μg/ml of nutrient medium.
Assay type: cell-based
Description: as §1
Work on `CC(C)(C#N)C(O)(CSc1ccc(Cl)cc1)Cn1cncn1` (stereo not drawn) [Compound 5] yielded an MIC of 4 µg/mL (≈ 11.9 µM). Compound `CC(C)(C#N)C(O)(CSc1ccc(Br)cc1)Cn1cncn1` (stereo not drawn) [Compound 4] has an MIC of 8 µg/mL (≈ 21 µM). `CC(C)(C#N)C(O)(COc1ccc(-c2ccccc2)cc1)Cn1cncn1` (stereo not drawn) [Compound 7] showed an MIC of 2 µg/mL (≈ 5.52 µM). `CC(C)(C#N)C(O)(CCc1ccc(Cl)cc1)Cn1cncn1` (stereo not drawn) [Compound 2] showed an MIC of 16 µg/mL (≈ 50.2 µM).

The compounds below were run on Aspergillus fumigatus in the same assay as above. Conditions: Sabouraud's test medium, 28-37° C., 96 hours, read-out: MIC values in μg/ml of nutrient medium.
Assay type: cell-based
Description: as §1
Compound `CC(C)(C#N)C(O)(CSc1ccc(Cl)cc1)Cn1cncn1` (stereo not drawn) [Compound 5] has an MIC of 8 µg/mL (≈ 23.7 µM). Compound `CC(C)(C#N)C(O)(CSc1ccc(Br)cc1)Cn1cncn1` (stereo not drawn) [Compound 4] has an MIC of 4 µg/mL (≈ 10.5 µM). Compound `CC(C)(C#N)C(O)(COc1ccc(-c2ccccc2)cc1)Cn1cncn1` (stereo not drawn) [Compound 7] has an MIC of 2 µg/mL (≈ 5.52 µM). `CC(C)(C#N)C(O)(CCc1ccc(Cl)cc1)Cn1cncn1` (stereo not drawn) [Compound 2] was tested, and the MIC was 16 µg/mL (≈ 50.2 µM).

What follows are compounds tested on Trichophyton mentagr. in the same assay as above. Conditions: Sabouraud's test medium, 28-37° C., 96 hours, read-out: MIC values in μg/ml of nutrient medium.
Assay type: cell-based, Trichophyton mentagrophytes
Description: as §1
`CC(C)(C#N)C(O)(CSc1ccc(Cl)cc1)Cn1cncn1` (stereo not drawn) [Compound 5] showed an MIC of 8 µg/mL (≈ 23.7 µM). Compound `CC(C)(C#N)C(O)(CSc1ccc(Br)cc1)Cn1cncn1` (stereo not drawn) [Compound 4] has an MIC of under 1 µg/mL. `CC(C)(C#N)C(O)(COc1ccc(-c2ccccc2)cc1)Cn1cncn1` (stereo not drawn) [Compound 7] was tested, and the MIC was under 1 µg/mL. In the case of `CC(C)(C#N)C(O)(CCc1ccc(Cl)cc1)Cn1cncn1` (stereo not drawn) [Compound 2], the MIC was under 1 µg/mL.
